Data set [1] in a line: acute toxicity, LD50 determined on the mouse upon oral administration. The note with it: in vivo. An excerpt:
While having an extremely low acute toxicity (cf. LD50 -values in Table I), the imidazolyl-(2)-carbinols reduce the lipid level in the serum and reduce artificially produced hyperlipidemia.
The values in brackets of the first column designate the LD50values
(§1) in g/kg, determined on the mouse upon oral administration. The values

For data set [2], the system named is serum lipid level. In words: Standard test on a male rat with normal serum lipid level (hypolipidemic action, 8 peroral administrations). The note with it: for change in vivo at 100 mg/kg / change in vivo at 30 mg/kg / change in vivo at 10 mg/kg: Rattus norvegicus, po, 192 h. It counts as in vivo. The procedure: 1. Standard test on a male rat with normal serum lipid level
The period of time used for the experiment was 8 days. Administration was effected once daily with the aid of an oesophageal sound with doses of 100, 30 and 10 mg/kg, respectively. In general, blood was withdrawn prior to and after the treatment and the concentration of cholesterin was determined in the serum according to the method described by Lauber and Richterich and that of triglycerides according to the method described by Eggstein and Kreutz.
as §1
before the oblique stroke of the other columns denote the percentual
change of the posterior value (value after the treatment) referred to the
anterior value (starting value before the treatment) of the group of
preparations, the anterior value being 100%; the values behind the obliqu
stroke indicate the percentual change of the posterior value of the group
treated with reference to the posterior value (= 100%) of a placebo group

Data set [3] relates to triton-hyperlipidemia. Nature of the data set: Triton-Hyperlipidemia of the male rat (inhibition of triton-hyperlipidemia). The class given is in vivo. The note with it: 4-days pre-treatment; for Inhibition of triton-hyperlipidemia, Serum-cholesterin / Inhibition of triton-hyperlipidemia, Serum-triglyceride: 300 mg/kg Triton WR 1339 i.p., Triton control = 100%. On the procedure:
2. Triton-Hyperlipidemia of the male rat
The influence of a 4-days pre-treatment with the compound of Example 1 on the formation of hyperlipidemia produced by i.p. application of 300 mg/kg of Triton ® WR 1339 was tested in comparison to a control group (=100%) which had only been treated with Triton.

A short description of data set [4]: solubility in the usual solvents. It counts as physicochemical.
The test system of data set [5] is dietetic hypercholesterinemia. In words: Dietetic hypercholesterinemia of the male rat (inhibition of dietetic hypercholesterinemia). The class given is in vivo. The note with it: 100 mg/kg p.o. once daily. The procedure: 3. Dietetic hypercholesterinemia of the male rat
Hypercholesterinemia was produced by the addition of 2% of cholesterin and 20% of coconut fat (Palmin) to the normal fodder. The rise of the cholesterin level was determined by comparison with a control group (=100%) which had been given normal fodder only. (Line 1 in Table III). The animals of the preparation group obtained at the same time of the begin of the diet daily once 100 mg/kg p.o. of the compound of Example 1. […]

Setting [6] is: 100 mg/kg/day p.o., 8 administrations, value before the oblique stroke (anterior value = 100%), read-out: % change of Serum-Cholesterin, after treatment vs starting value before treatment.
[7] abbreviates: 100 mg/kg/day p.o., 8 administrations, value behind the oblique stroke (placebo posterior value = 100%), read-out: % change of Serum-Cholesterin, treated group vs placebo group.
Setting [8] is: 100 mg/kg/day p.o., 8 administrations, value behind the oblique stroke (placebo posterior value = 100%), read-out: % change of Serum-triglycerides, treated group vs placebo group.
Setting [9] is: 10 mg/kg/day p.o., 8 administrations.
Setting [10] is: 30 mg/kg/day p.o., 8 administrations, value before the oblique stroke (anterior value = 100%), read-out: % change of Serum-Cholesterin, after treatment vs starting value before treatment.
Setting [11] is: 30 mg/kg/day p.o., 8 administrations, value before the oblique stroke (anterior value = 100%), read-out: % change of Serum-triglycerides, after treatment vs starting value before treatment.
The mark [12] stands for this setting: 30 mg/kg/day p.o., 8 administrations, value behind the oblique stroke (placebo posterior value = 100%), read-out: % change of Serum-Cholesterin, treated group vs placebo group.
Setting [13] is: 30 mg/kg/day p.o., 8 administrations, value behind the oblique stroke (placebo posterior value = 100%), read-out: % change of Serum-triglycerides, treated group vs placebo group.
Where [14] appears, read: 100 mg/kg/day p.o., 8 administrations, value before the oblique stroke (anterior value = 100%), read-out: % change of Serum-triglycerides, after treatment vs starting value before treatment.
Where [15] appears, read: read-out: % change of Serum-Cholesterin, after treatment vs starting value before treatment.
Where [16] appears, read: read-out: % change of Serum-triglycerides, after treatment vs starting value before treatment.
Where [17] appears, read: read-out: % change of Serum-triglycerides, treated group vs placebo group.

Molecules are shown by their SMILES. Like-named read-outs stand apart in the source and are kept apart here.

The LD50 is the dose expected to kill half of the subjects tested. In data set [1], `CC(O)c1nccn1Cc1ccccc1` (stereo not drawn) [Example 2, 1-[1-benzylimidazolyl-(2)]-ethanol] displayed an LD50 of 1120 mg/kg. For the same compound, the change in vivo at 100 mg/kg in data set [2] (setting [6]) was -24%; in data set [2] (setting [7]) it was -3%; in data set [2] (setting [8]), -4%.
In data set [1], `CCOC(=O)C(C)(C)Oc1ccc(Cl)cc1` [Clofibrate, 2-(p-chlorophenoxy)-isobutyric acid ethyl ester, reference compound] displayed an LD50 of 2000 to 2500 mg/kg. In addition, the “change of Serum-Cholesterin (in words)” value in data set [2] (setting [9]) was “ineffective”. Moreover, in data set [2] (setting [9]), the “change of Serum-triglycerides (in words)” value was “ineffective”. Further, the change in vivo at 30 mg/kg in data set [2] (setting [10]) is -5%; in data set [2] (setting [11]), -4%; in data set [2] (setting [12]) it was -8%; in data set [2] (setting [13]) it was -7%. Also, the change in vivo at 100 mg/kg is -22% in data set [2] (setting [6]), -30% in data set [2] (setting [14]), -13% in data set [2] (setting [7]) and -30% in data set [2] (setting [8]). Besides, the “Inhibition of triton-hyperlipidemia, Serum-cholesterin (in words)” value in data set [3] (10 mg/kg/day p.o.) is “ineffective”. For the same compound, the “Inhibition of triton-hyperlipidemia, Serum-triglyceride (in words)” value in data set [3] (10 mg/kg/day p.o.) is given as “ineffective”. Besides, in data set [3] (100 mg/kg/day p.o.), the “Inhibition of triton-hyperlipidemia, Serum-cholesterin” value is listed as -29%. Besides, the “Inhibition of triton-hyperlipidemia, Serum-triglyceride” value in data set [3] (100 mg/kg/day p.o.) is -16%.
As for `Cn1c(C(O)c2nccn2Cc2ccccc2)nc2ccccc21` (stereo not drawn) [Example 9, [1-Benzylimidazolyl-(2)]-[1-methylbenzimidazolyl-(2)]-carbinol], the 50% lethal dose (LD50) in data set [1] was over 4000 mg/kg. Moreover, the change in vivo at 100 mg/kg in data set [2] (setting [6]) is -21%; in data set [2] (setting [14]), -40%; in data set [2] (setting [7]), -11%; in data set [2] (setting [8]), -24%.
`OC(c1ccccc1)(c1ncc[nH]1)c1ncc[nH]1` [Example 7, Bis-[imidazolyl-(2)]-phenyl-carbinol] had an LD50 in data set [1] of over 4000 mg/kg. Besides, the change in vivo at 100 mg/kg was -7% in data set [2] (setting [6]), -18% in data set [2] (setting [14]) and -18% in data set [2] (setting [8]). Also, the “solubility (in words)” value in data set [4] is recorded as “not soluble or poorly soluble only in the usual solvents”.
For `OC(c1ccccc1)(c1nccn1Cc1ccccc1)c1nccn1Cc1ccccc1` [Example 1, Bis-[1-benzylimidazolyl-(2)]-phenyl-carbinole], in data set [1], the LD50 was over 4000 mg/kg. Also, the change in vivo at 10 mg/kg in data set [2] (10 mg/kg/day p.o., 8 administrations, value before the oblique stroke (anterior value = 100%), read-out: % change of Serum-Cholesterin, after treatment vs starting value before treatment) was -10%; in data set [2] (10 mg/kg/day p.o., 8 administrations, value behind the oblique stroke (placebo posterior value = 100%), read-out: % change of Serum-Cholesterin, treated group vs placebo group), -12%; in data set [2] (10 mg/kg/day p.o., 8 administrations, value behind the oblique stroke (placebo posterior value = 100%), read-out: % change of Serum-triglycerides, treated group vs placebo group), -13%. Besides, the change in vivo at 30 mg/kg is -33% in data set [2] (setting [10]), -25% in data set [2] (setting [11]), -10% in data set [2] (setting [12]) and -10% in data set [2] (setting [13]). Besides, the “Inhibition of triton-hyperlipidemia, Serum-cholesterin” value in data set [3] (10 mg/kg/day p.o.) is recorded as -31%; in data set [3] (100 mg/kg/day p.o.), -28%. For the same compound, the figures for the “Inhibition of triton-hyperlipidemia, Serum-triglyceride” value in data set [3] (10 mg/kg/day p.o.) and in data set [3] (100 mg/kg/day p.o.) were -40% and -35%, respectively. In addition, the “% change of the total cholesterin content in the serum, inhibition due to preparation (diet = 100%)” value was -23% in data set [5] (after 8 days), -19% in data set [5] (after 20 days) and -9% in data set [5] (after 33 days).
With `CC(C)n1ccnc1C(C)(O)c1ccc(Cl)cc1` (stereo not drawn) [Example 8, Methyl-(p-chlorophenyl)-[1-isopropylimidazolyl-(2)]-carbinol], the LD50 in data set [1] was over 4000 mg/kg. Besides, the change in vivo at 100 mg/kg is -14% in data set [2] (setting [6]), -39% in data set [2] (setting [14]) and -21% in data set [2] (setting [8]).
Turning to `OC1(c2nccn2Cc2ccccc2)c2ccccc2-c2ccccc21` [Example 4, 9-[1-Benzylimidazolyl-(2)]-fluorene-9-ol], the LD50 in data set [1] is over 4000 mg/kg. Further, the change in vivo at 30 mg/kg in data set [2] (setting [10]) was -11%; in data set [2] (setting [11]) it was -25%. Besides, the change in vivo at 100 mg/kg in data set [2] (setting [6]) was -16%; in data set [2] (setting [14]), -48%; in data set [2] (setting [7]), -21%; in data set [2] (setting [8]), -37%.
In data set [1], `CC(C)n1ccnc1C(O)C(Cl)(Cl)Cl` (stereo not drawn) [Example 3, 1-[1-Isopropylimidazolyl-(2)]-2,2,2-trichloroethanol] came in with an LD50 of over 4000 mg/kg. Further, the values for the change in vivo at 30 mg/kg in data set [2] (setting [15]), in data set [2] (setting [16]) and in data set [2] (setting [17]) were -16%, -21% and -6%, respectively. The change in vivo at 100 mg/kg is -6% in data set [2] (setting [15]); -18% in data set [2] (read-out: % change of Serum-Cholesterin, treated group vs placebo group); -57% in data set [2] (setting [16]); -30% in data set [2] (setting [17]).
With `CC(O)(c1ccc(OC(F)(F)C(F)Cl)cc1)c1nccn1Cc1ccccc1` (stereo not drawn) [Example 10, 1-[p-(1,1,2-trifluoro-2-chloro-ethoxy)-phenyl]-1-[1-benzylimidazolyl-(2)]-ethanol], the LD50 in data set [1] was over 4000 mg/kg. For the same compound, the change in vivo at 100 mg/kg in data set [2] (setting [6]) is -36%; in data set [2] (setting [14]) it was -56%; in data set [2] (setting [7]), -21%; in data set [2] (setting [8]), -26%.
The compound `Cn1c(C(O)(c2ccccc2)c2ccc(Cl)cc2Cl)nc2ccccc21` (stereo not drawn) [Example 6, Phenyl-(2,4-dichlorophenyl)-[1-methylbenzimidazolyl-(2)]-carbinol] gave an LD50 in data set [1] of over 4000 mg/kg. Further, the change in vivo at 30 mg/kg was -20% in data set [2] (setting [10]), -19% in data set [2] (setting [11]) and -29% in data set [2] (setting [13]). For the same compound, the change in vivo at 100 mg/kg is -12% in data set [2] (setting [6]), -46% in data set [2] (setting [14]), -25% in data set [2] (setting [7]) and -35% in data set [2] (setting [8]).
The compound `Cn1ccnc1C(O)(c1ccccc1)c1ccc(Cl)cc1Cl` (stereo not drawn) [Example 5, Phenyl-(2,4-dichlorophenyl)-[1-methylimidazolyl-(2)]-carbinol] came in with an LD50 in data set [1] of over 4000 mg/kg. The change in vivo at 30 mg/kg in data set [2] (setting [10]) is -23%; in data set [2] (setting [11]), -1%; in data set [2] (setting [12]), -9%; in data set [2] (setting [13]) it was -17%. The change in vivo at 100 mg/kg in data set [2] (setting [6]) is -19%; in data set [2] (setting [14]) it was -37%; in data set [2] (setting [7]), -32%; in data set [2] (setting [8]), -35%.
As to `COc1ccc(C(O)c2nccn2-c2ccccc2)cc1OC` (stereo not drawn) [Example 11, (3,4-Dimethoxy-phenyl)-[1-phenylimidazolyl-(2)]-carbinol], in data set [1], the LD50 is over 4000 mg/kg. Besides, the change in vivo at 100 mg/kg in data set [2] (setting [6]) is -24%; in data set [2] (setting [14]), -32%; in data set [2] (setting [7]), -3%; in data set [2] (setting [8]) it was -21%.

Source of the values: US4213994A, “Imidazolyl-(2)-carbinols having hypolipidemic action and process for preparing them” (Hoechst Aktiengesellschaft, priority 1971, dated 1980).
